According to patent US8241607B2, “Use of fructose-based compounds for the diagnosis of cancer” (priority 2005, dated 2012):
Entries after “also recorded” stand apart in the source; their conditions may differ.

Test system: PANC-1 cells
Assay: Inhibition of PANC-1 proliferation by oxythiamine (MTS assay)
Assay type: cell-based
Settings: oxythiamine 0.5 mM, 72 h
Procedure: FIG. 35 depicts inhibition of pancreatic cancer PANC-1 cell proliferation by incubation with the transketolase inhibitor, oxythiamine (0.5-2 mM) for 72 h in accordance with an embodiment of the present invention. Proliferative rates were measured using the MTS proliferation assay.
The inventors believe that fructose-treatment of pancreatic cancer cells led to an increase in TKK-driven nucleic acid synthesis, and thus fructose-treatment would result in an increase in either PANC-1 TKK expression and/or activity in comparison to equivalent glucose concentrations. Western blot analysis on protein lysates derived from fructose-, and glucose-treated PANC-1 cells were performed (5.5 mM fructose, and glucose for 24, and 48 h as per previous protocol) using a specific TKK antibody, and compared TKK expression in the fructose-, and glucose-treated PANC-1 cells. As depicted in FIG. 33, TKK expression at 24 h, and 48 h in protein lysates derived from 5.5 mM glucose-treated PANC-1 cells was increased in comparison to expression in 2 mM glucose-treated cells. […] After gentle mixing the absorbance of the mixture was measured at 10 min intervals for 2 h at 340 nm. Transketolase activity was then derived from the difference in absorbance at 10, and 80 minutes, and expressed as nmol/min/million cells. […] Pancreatic cancer proliferation rates were then measured using the MTS assay (FIG. 35). […]

With `Cc1ncc(C[n+]2csc(CCO)c2C)c(=O)[nH]1` [oxythiamine] the “effect on fructose-mediated increase in pancreatic cancer cell proliferation” value (5.5 mM fructose) was “virtually abolished; also recorded: almost completely abrogate” and the “effect on glucose-induced and fructose-induced PANC-1 proliferation” value was “inhibited glucose-induced and fructose-induced PANC-1 proliferation”.
